# Assay results: PubChem BioAssay AID1645848
# Conditions: buffer; pH 7.4; 6.0 h; 150.0 µM
row,SMILES,solubility kinetic [µg/mL]
1,O=C1CCCC2=C1C1(CCCC1)N=C(Nc1nc3cc(Br)ccc3o1)N2,< 1
2,Oc1ccc(CNc2cccc(F)c2)c2cccnc12,< 1
3,COc1ccc(S(=O)(=O)N(CC(=O)Nc2ccc(C)cc2)c2ccc(C)cc2)cc1OC,< 1
4,COC(=O)CNC(=O)c1nc(-c2ccc(F)cc2)c2ccccn12,< 1
5,Cc1ccc2nc(-c3ccccn3)c(Nc3ccccc3C)n2c1,< 1
6,CN(C(=O)CSc1nc2ccc(NC(=O)c3ccc(F)cc3)cc2s1)c1ccccc1,< 1
7,CC(Nc1ccc([S+](=O)([O-])Nc2nccs2)cc1)c1ccccc1 (configuration not stated),4.76
8,CCc1ccc(-n2c(=O)c3cccnc3n2CC(=O)Nc2cc(OC)ccc2OC)cc1,< 1
9,C=C1[C@@H](C)C2[C@H](Cc3ccccc3)NC(=O)[C@@]23C(/C=C/C[C@H](C)C[C@@](C)(O)/C=C/[C@@H]3OC(C)=O)[C@@H]1O (some centres not stated),1.9
10,CCCc1c(CC)c(=N)c2ccccc2n1C.I,> 34
11,COC[C@@H]1CN(C(=O)c2nn(C)c3ccccc23)C[C@H]1c1nc(C)no1,> 100
12,O=C(Nc1ccc(F)cc1F)c1cc(-c2ccc[nH]2)n[nH]1,> 29
13,CCOC(=O)c1[nH]c(C)c(CCC(=O)N2CCN(c3cc(C)ccc3C)CC2)c1C,6.25
14,FC(F)(F)c1ccc(N2CCN(C(=S)Nc3ccccn3)CC2)cc1,8.21
15,CC[C@H]1/C=C\C=C/C[C@@H](C)[C@H](O)[C@@](C)(O)C(=O)[C@@H](C)[C@H](O)[C@@H](C)C(=O)[C@@H](C)[C@H](O)[C@@H](C)/C=C\C(=O)O[C@@H]2[C@H](C)[C@H](CC1)O[C@]1(CC[C@H](C)[C@H](C[C@@H](C)O)O1)[C@H]2C,< 1
16,CC(=O)Nc1ccc(-c2csc(N3CCC(C(N)=O)CC3)n2)cc1,> 51
17,O=c1cc(N2CCOCC2)oc2c1ccc1ccccc12,16.7
18,CC(=O)Nc1ccc(N[S+](=O)([O-])c2cccc(NC(=O)c3[nH]c(C)c(C(C)=O)c3C)c2)cc1,18.3
19,CC(=O)c1ccc(N2CCN(S(=O)(=O)c3ccc4[nH]c(=O)[nH]c4c3)CC2)cc1,1.19
20,NC(=O)C1CCN(c2ncnc(-c3ccc4c(c3)OCCCO4)n2)CC1,> 52
21,CCOc1ccc(C(C)CNC(=O)c2cc3sccc3n2Cc2ccccc2)cc1OCC (configuration not stated),< 1
22,CN(c1ncccc1CNc1nc(Nc2ccc3c(c2)CC(=O)N3)ncc1C(F)(F)F)S(C)(=O)=O,51.7
23,COc1ccc(-c2cc(-c3cccc(NC(C)=O)c3)cn3cncc23)cn1,6.93
24,COc1ccc(NC(=O)CCCc2nnc3n(CCC(C)C)c(=O)c4sccc4n23)cc1Cl,< 1
25,CCCCCNc1oc(-c2cccc3ccccc23)nc1C#N,< 1

row,SMILES,solubility kinetic [µg/mL]
1,Nc1nc2c(s1)C(c1ccc(F)c(F)c1)CC(=O)N2 (configuration not stated),> 42
2,Fc1ccc(-c2ccc(Nc3nc(-c4ccncc4)nc4ccccc34)cc2F)cc1,< 1
3,CSc1cc2c(s1)c1cnn(Cc3cccc(N)c3)c(=O)c1n2C,< 1
4,CC(=O)c1c(C)c2cnc(Nc3ccc(N4CCNCC4)cn3)nc2n(C2CCCC2)c1=O,17.4
5,O=C(Nc1ncc(Cc2ccc(C(F)(F)F)cc2)s1)c1ccc(-c2cccnc2)o1,< 1
6,Cc1ccc(-c2cc(C(=O)Nc3ccc(S(=O)(=O)NCc4nccs4)cc3)c3ccccc3n2)cc1C,1.66
7,C[C@@]1(O)[C@H](O)[C@@H](CO)O[C@H]1n1ccc(N)nc1=O,> 38
8,Fc1cnc(-c2ccccc2C(F)F)nc1NCc1ccc(-c2cccnc2)cc1,< 1
9,CCc1ccc(NC(=O)c2[nH]c(C)c(C(C)=O)c2C)cc1S(=O)(=O)Nc1cccc(C#N)c1,1.67
10,COc1ccc(C(=O)Nc2nc(-c3ccccc3)cs2)c(OC)c1,< 1
11,O=C(Nc1ncccc1O)c1ccc(S(=O)(=O)Nc2ccccc2)cc1,> 55
12,COCCn1ccc2c(C3=CCOCC3)nc(-c3cccc(NC(C)=O)c3)cc21,> 87
13,CC1=C(C(=O)Nc2ccccc2)C(c2ccccc2Cl)N=C(Nc2nc3ccccc3o2)N1 (configuration not stated),< 1
14,O=C([C@@H]1CCCN(c2ccc3[nH]c(C4(n5cc(Cl)cn5)CC4)nc3n2)C1)N1CCCC1,27.2
15,COc1cccc(CNc2ccc(S(=O)(=O)Nc3nccs3)cc2)c1O,> 58
16,Cc1sc(NC(=O)Cc2ccc3c(c2)OCO3)nc1-c1ccc2c(c1)CCN2C(=O)c1ccccc1,< 1
17,Cc1cc(C)c(CNC(=O)c2nc(-c3cccc(CO)c3)cc3c2ccn3C)c(=O)[nH]1,24.7
18,CCOC(=O)C1(Cc2ccccc2C(F)(F)F)CCN(C2CCN(C(C)C)CC2)CC1,55
19,O=C(Nc1nnc(-c2cccs2)o1)c1ccc(Cl)cc1,6.09
20,Cc1ccc2oc(NC3=NC4(CCCC4)C4=C(CCCC4=O)N3)nc2c1,< 1
21,Cc1cc(-c2nnc3n2CCCCC3)c(C)n1-c1ccc(Cl)cc1,25.9
22,CCOC(=O)c1ccc(NC(=O)CSc2nc3c(cc2C#N)N2CCC3CC2)cc1,1.15
23,Cc1cc(C)nc(NC(=S)N2CCN(c3cccc(C(F)(F)F)n3)CC2)c1,20.6
24,C[C@@H](O)CNC(C)(C)CC(=O)N[C@@H]1CCc2ccccc2N(Cc2ccc(-c3ccccc3-c3nn[nH]n3)cc2)C1=O,> 84
25,OCc1ccc(-c2cc3c(ccn3Cc3cccnc3)c(C3=CCOCC3)n2)cc1,54.9

row,SMILES,solubility kinetic [µg/mL]
1,Fc1ccc(N2CCCN(CC3[C@H]4CNC[C@@H]34)CC2)cc1 (some centres not stated),> 43
2,Fc1cccc(Nc2nc(-c3ccncc3)nc3ccccc23)c1F,< 1
3,COc1ccc2[nH]c(=O)c(-c3noc(-c4ccc(F)cc4)n3)cc2c1,< 1
4,Cc1cccc(-n2cnc3cc(C(=O)N4CCCCCC4)ccc32)c1,41.2
5,Cc1cc(SCc2sc(-c3ccc(C(F)(F)F)c(F)c3)nc2C)ccc1OCC(=O)O,> 70
6,CC(C)(C)OC(=O)N[C@@H](Cc1ccc(OS(=O)(=O)c2cccc3cnccc23)cc1)C(=O)N1CCCN(C(=O)OC(C)(C)C)CC1,< 1
7,c1c[nH]c(C2CCN(c3ncc(-c4ccc5c(c4)OCCCO5)s3)CC2)n1,4.09
8,Cc1cc(N[S+](=O)([O-])c2ccc(NC(=O)Cc3ccc(F)c(F)c3)cc2)no1,> 60
9,Nc1nccc2c1ncn2[C@@H]1C=C(CO)[C@@H](O)[C@H]1O,> 39
10,Fc1ccc(-c2csc3ncnc(Sc4nnnn4C4CC4)c23)cc1,2.91
11,Cn1nnnc1Sc1ncnc2scc(Br)c12,1.27
12,Fc1ccc(Nc2nc(-c3ccncc3)ncc2-c2ccccc2)cc1F,< 1
13,Cc1ccnc(C)c1C(=O)Nc1cccc([S+](=O)([O-])N(C)C)c1,> 49
14,CCn1ncc(NC(=O)Cn2ncc3cc(-c4cccc(OC)c4)ccc32)n1,< 1
15,NC(=O)C1CCN(c2nc(-c3ccc4c(c3)OCCCO4)cs2)CC1,34.7
16,Cc1ccc(S(=O)(=O)Nc2ccc(C(=O)Nc3nc(-c4ccccc4)cs3)c(Cl)c2)cc1,< 1
17,COCC(C)NCc1cc2ccc(OC)cc2nc1N1CCN(c2ccc(F)cc2)CC1 (configuration not stated),39.5
18,COc1ccc(-n2nc3c(N4CCCC(C(=O)NCCc5ccc(C)cc5)C4)nnc(C)c3c2C)cc1 (configuration not stated),4.04
19,CN(Cc1ccccc1)C(=O)c1ccc(S(=O)(=O)Nc2ccccc2)cc1,22.5
20,Cc1ccc(-c2cc(C(=O)Nc3ccc(S(C)(=O)=O)cc3)c3ccccc3n2)cc1C,< 1
21,Fc1cc(Nc2nc(-c3ccncc3)nc3ccccc23)ccc1OCC(F)(F)F,< 1
22,NC(=O)C1CCN(c2nc(-c3cccc([N+](=O)[O-])c3)cs2)CC1,28.4
23,NC[C@H](O)c1ccc(O)c(O)c1,> 25
24,Cc1ccc(S(=O)(=O)Nc2ccccc2C(=O)Nc2ncc(-c3ccccc3)s2)cc1,< 1
25,CN(C)c1cccc(-c2c3c(=O)n(-c4ccccc4Cl)[nH]c3cc(=O)n2C)c1,46.5

row,SMILES,solubility kinetic [µg/mL]
1,CCCCN(CC)CCNC(=O)c1cc2c(-c3ccc(Cl)cc3)nn(C)c2s1,> 62
2,Cc1ccc(S(=O)(=O)Nc2cnccc2C(=O)Nc2nc(-c3cccc(C)c3)cs2)cc1,15.4
3,Cc1sc(NC(=O)Cc2ccc3c(c2)OCO3)nc1-c1ccc2c(c1)CCN2C(=O)c1ccccc1Cl,< 1
4,NC(=O)C1CCN(c2nc(-c3ccc(N)cc3)cs2)CC1,> 45
5,COc1cccc(CNC(=O)c2ccc(N3CCCC3)c(NC(=O)Nc3ccccc3F)c2)c1,< 1
6,Cc1nc(N)nc2ccccc12,> 24
7,Fc1cnc(-c2ccccc2C(F)F)nc1NCc1ccc(-c2ccn[nH]2)cc1,< 1
8,COc1cccc(CNc2ccc(S(=O)(=O)Nc3ccc4ccccc4c3)cc2)c1O,< 1
9,Cc1ccc(CN2CCOC[C@H]2c2ncc(-c3cccc(F)c3)[nH]2)cc1,10.4
10,CCCc1cc(C)[nH]c(=O)c1CNC(=O)c1cc(-c2ccc(N3CCN(C(C)C)CC3)nc2)cc2c1cnn2C(C)C,41.1
11,COc1cc(-c2ccnc3c2c(C)nn3-c2ccc(C(F)(F)F)cc2)ccc1O,28.1
12,Nc1nc2c(s1)C(c1ccccc1)CC(=O)N2 (configuration not stated),26
13,N#C/C(=C\c1ccc(-c2ccc(C(=O)O)cc2)o1)c1nc2ccccc2[nH]1,< 1
14,CC[C@@H]1C(=O)N(C)c2cnc(Nc3ccc(C(=O)NC4CCN(C)CC4)cc3OC)nc2N1C1CCCC1,> 77
15,CCOc1cc(CNc2ccc(O)cc2)ccc1OCc1ccc(Cl)cc1,4.36
16,O=C(Nc1nc(-c2ccccc2)cs1)c1ccncc1NS(=O)(=O)c1ccc(C(F)(F)F)cc1,< 1
17,CC(C)Oc1ccc(CNC(=O)C2CCN(C(=O)N3CCOc4ccc(Cl)cc43)CC2)cc1,9.14
18,COc1cc(CNCCO)cc(Cl)c1OCc1ccc(Cl)cc1Cl.Cl,40
19,CC(C)CC(=O)Nc1n[nH]c2c1CN(C(=O)C1CCN(C)CC1)C2(C)C,> 53
20,COc1ccccc1-c1[nH]nc2ncc(-c3ccc(C)cc3)nc12,< 1
21,O=C(O)c1ccnc(-c2cc(C(=O)NCCc3ccccc3)ccn2)c1,> 51
22,CC(C)(C)n1nc(-c2ccc(Cl)cc2)c2c(N)ncnc21,< 1
